The text below walks through data of ChEMBL document CHEMBL5236572, “Bioactive Aurones, Indanones, and Other Hemiindigoid Scaffolds: Medicinal Chemistry and Photopharmacology Perspectives” (J Med Chem, 2022).

Molecules are shown by their SMILES. Where only a bound is given, the exact number is not on record here.

The subject of series [1] is THP-1. As to the kind of experiment: Antiinflammatory activity against human THP-1 cells assessed as inhibition of LPS-stimulated TNF-alpha production at 40 uM incubated for 1 hrs followed by LPS stimulation for 4 hrs by ELISA. The note with it: time 5 hrs. It counts as functional. (ELISA stands for enzyme-linked immunosorbent assay.)
For series [2], the system named is THP-1. Briefly: Antiinflammatory activity against human THP-1 cells assessed as inhibition of LPS-stimulated iNOS expression at 50 uM incubated for 1 hrs followed by LPS stimulation for 4 hrs by ELISA. In kind it is functional. Particulars: time 5 hrs.
Series [3] concerns the target Peroxisome proliferator-activated receptor gamma (Homo sapiens, UniProt P37231). As to the kind of experiment: Binding affinity to PPARgamma (unknown origin) by competitive binding assay.
In a further series the test system is PMNL. Briefly: Anti-inflammatory activity in human polymorphonuclear neutrophils assessed as reduction in cell movement incubated for 24 hrs by fluorescence analysis. It counts as functional, cell-based.
Series [4] relates to Leishmania major. As to the kind of experiment: Antileishmanial activity against promastigote stage Leishmania major MHOM/JL/80/Friedlin overexpressing ABCI4 infected in human THP-1 cells assessed as reduction in parasite growth incubated for 72 hrs by MTT assay. It counts as functional, organism-based. Particulars: THP-1, 72 h. In general terms: Formazan colour is commonly taken as a measure of viable cells.

In series [5] the test system is THP-1. Briefly: Cytotoxicity against human THP-1 cells assessed as reduction in cell viability incubated for 72 hrs by MTT assay. It counts as functional, cell-based. The note with it: THP-1, 72 h.
For series [6], the system named is Leishmania major. As to the kind of experiment: Antileishmanial activity against promastigote stage Leishmania major MHOM/JL/80/Friedlin overexpressing ABCI4 infected in human THP-1 cells assessed as fold change in reduction in parasite growth incubated for 72 hrs in presence of SbIII by MTT assay. In kind it is functional.
Series [7] deals with Geobacillus stearothermophilus. Briefly: Antibacterial activity against Geobacillus stearothermophilus NCIB 8222 assessed as zone of inhibition incubated for 24 hrs by agar well diffusion method. It counts as functional. (Agar diffusion results depend on both activity and mobility in agar.)
The subject of another series is Bacillus anthracis. Briefly: Antibacterial activity against clinical isolate Bacillus anthracis assessed as zone of inhibition incubated for 24 hrs by agar well diffusion method. It counts as functional.
A further series deals with Bacillus subtilis. As to the kind of experiment: Antibacterial activity against Bacillus subtilis NCIB 3610 assessed as zone of inhibition incubated for 24 hrs by agar well diffusion method. It counts as functional.
Another series has as its system Bacillus cereus. Briefly: Antibacterial activity against Bacillus cereus NCIB 6349 assessed as zone of inhibition incubated for 24 hrs by agar well diffusion method. In kind it is functional.
A further series deals with Staphylococcus aureus. As to the kind of experiment: Antibacterial activity against Staphylococcus aureus NCIB 8588 assessed as zone of inhibition incubated for 24 hrs by agar well diffusion method. It counts as functional.
The test system of another series is Escherichia coli. Briefly: Antibacterial activity against Escherichia coli NCIB 86 assessed as zone of inhibition incubated for 24 hrs by agar well diffusion method. In kind it is functional.
The subject of the next series is Pseudomonas fluorescens. As to the kind of experiment: Antibacterial activity against Pseudomonas fluorescens NCIB 3756 assessed as zone of inhibition incubated for 24 hrs by agar well diffusion method. It counts as functional.
For the next series, the system named is Klebsiella pneumoniae. As to the kind of experiment: Antibacterial activity against Klebsiella pneumoniae NCIB 418 assessed as zone of inhibition incubated for 24 hrs by agar well diffusion method. In kind it is functional.
In the next series the test system is Shigella dysenteriae. Briefly: Antibacterial activity against Shigella dysenteriae clinical isolate assessed as zone of inhibition incubated for 24 hrs by agar well diffusion method. In kind it is functional.
The subject of the next series is Candida albicans. Briefly: […] activity against Candida albicans clinical isolate assessed as zone of inhibition incubated for 24 hrs by agar well diffusion method. In kind it is functional.
A further series has as its system Pseudomonas aeruginosa. Briefly: Antibacterial activity against Pseudomonas aeruginosa NCIB 950 assessed as zone of inhibition incubated for 24 hrs by agar well diffusion method. It counts as functional.
The test system of the next series is Toxoplasma gondii. Briefly: Antiparasitic activity against Toxoplasma gondii RH type 1 infected in human HFF cells assessed as inhibition of parasite proliferation incubated for 30 hrs by Hoechst-33342, YFP2 and Alexa-488 dye based high content imaging analysis. In kind it is functional, organism-based. The note with it: RH type 1, HFF.
Series [8] deals with Amyloid-beta precursor protein (Homo sapiens, UniProt P05067). As to the kind of experiment: Binding affinity to human brain amyloid-beta fibril.
Sequence of Amyloid-beta precursor protein (P05067 whole entry): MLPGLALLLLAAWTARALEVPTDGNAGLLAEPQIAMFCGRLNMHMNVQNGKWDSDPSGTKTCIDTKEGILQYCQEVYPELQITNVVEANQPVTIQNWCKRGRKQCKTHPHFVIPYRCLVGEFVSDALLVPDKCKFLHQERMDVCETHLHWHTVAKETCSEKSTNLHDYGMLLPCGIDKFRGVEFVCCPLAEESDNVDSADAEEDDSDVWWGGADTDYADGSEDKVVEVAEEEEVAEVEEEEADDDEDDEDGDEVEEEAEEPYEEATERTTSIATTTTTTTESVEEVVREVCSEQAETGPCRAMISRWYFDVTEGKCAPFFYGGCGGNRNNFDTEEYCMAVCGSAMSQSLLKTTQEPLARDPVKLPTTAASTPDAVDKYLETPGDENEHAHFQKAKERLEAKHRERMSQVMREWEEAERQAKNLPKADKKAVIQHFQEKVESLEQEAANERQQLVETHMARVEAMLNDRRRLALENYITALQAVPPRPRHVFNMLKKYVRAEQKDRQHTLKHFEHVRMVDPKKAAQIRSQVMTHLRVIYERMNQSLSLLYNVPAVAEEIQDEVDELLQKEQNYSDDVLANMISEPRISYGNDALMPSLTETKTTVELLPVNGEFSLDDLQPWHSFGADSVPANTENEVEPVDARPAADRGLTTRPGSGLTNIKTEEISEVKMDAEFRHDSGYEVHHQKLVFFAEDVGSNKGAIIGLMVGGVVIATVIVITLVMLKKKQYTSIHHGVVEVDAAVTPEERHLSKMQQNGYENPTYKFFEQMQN
The test system of a further series is RAW264.7. Briefly: cells. The note with it: Mus musculus.
The next series relates to Leishmania infantum. Briefly: Antileishmanial activity against luciferase expressing […] amastigote stage of Leishmania infantum MOM/MA671/TMAP263 infected in PMA differentiated human THP-1 macrophage cells assessed as reduction in parasite growth incubated for 72 hrs by luminescence analysis. It counts as functional, organism-based. Particulars: MOM/MA671/TMAP263, THP-1, 72 h.

A short description of series [9]: Selectivity index, ratio of IC50 for cytotoxicity against PMA differentiated human THP-1 cells to IC50 for antileishmanial activity against luciferase expressing axenic amastigote stage of Leishmania infantum MOM/MA671/TMAP263 infected in PMA differentiated human THP-1 macrophage cells. In kind it is toxicity, cell-based. Particulars: PMA-differentiated THP-1 cells, read-out: Ratio IC50.

A further series has as its system NB-4. As to the kind of experiment: Cytotoxicity against human NB-4 cells assessed as reduction in cell viability by MTT assay. In kind it is functional, cell-based.
A further series relates to SH-SY5Y. Briefly: Cytotoxicity against human SH-SY5Y cells assessed as reduction in cell viability by MTT assay. It counts as functional, cell-based.
Series [10] deals with Human immunodeficiency virus 1. Briefly: Antiviral activity against HIV-1 infected in human C8166 cells assessed as reduction in virus-induced cytopathic effect by MTT assay. In kind it is functional, organism-based. Particulars: Human immunodeficiency virus 1, C8166.
Series [11] in a line: Cytotoxicity against human C8166 cells assessed as reduction in cell viability by MTT assay. It counts as toxicity, cell-based.
A short description of series [12]: Selectivity index, ratio of CC50 for cytotoxicity against human C8166 cells to EC50 for antiviral activity against HIV-1 infected in human C8166 cells. It counts as toxicity, cell-based. The note with it: read-out: Ratio CC50/EC50.
For series [13], the system named is Schistosoma mansoni. Briefly: Antischistosomal activity against adult stage of Schistosoma mansoni assessed assessed as inhibition of parasite death. In kind it is functional, organism-based.
A short description of series [14]: Cytotoxicity against mouse Peritoneal macrophage. The note with it: peritoneal macrophages. In kind it is toxicity, cell-based.
The subject of series [15] is Trypanosoma brucei brucei. As to the kind of experiment: Antitrypanosomal activity against Trypanosoma brucei brucei assessed as reduction in parasite viability by resorufin based fluorescence assay. In kind it is functional, organism-based.
Series [16] in a line: Cytotoxicity against human HeLa cells assessed as reduction in cell viability. In kind it is toxicity, cell-based.
In the next series the test system is Plasmodium falciparum. As to the kind of experiment: Antimalarial activity against chloroquine-resistant erythrocyte stage Plasmodium falciparum assessed as growth inhibition incubated for 72 hrs by SYBR Green I dye based fluorescence analysis. In kind it is functional, organism-based.
In the next series the test system is Plasmodium berghei. Briefly: Antimalarial activity against liver stage transgenic Plasmodium berghei (PbGFP-Luccon) infected in human Huh-7 cells assessed as reduction in parasite load incubated for 48 hrs by firefly luciferase assay. In kind it is functional, organism-based. The note with it: Huh-7, 48 h.
In a further series the test system is HEK-293T. Briefly: Cytotoxicity against human HEK293T cells assessed as reduction in cell viability incubated for 48 hrs by Alamar Blue assay. In kind it is functional, cell-based.
For series [17], the system named is Schistosoma mansoni. Briefly: Antischistosomal activity against adult stage of Schistosoma mansoni BH assessed assessed as inhibition of parasite death at 25 uM incubated for 24 hrs by light microscopy. It counts as functional.
Series [18] is described as follows: Cytotoxicity against mouse Peritoneal macrophage incubated for 24 hrs by MTT assay. It counts as toxicity, cell-based. Particulars: peritoneal macrophages.

Sequence of Peroxisome proliferator-activated receptor gamma (P37231 whole entry): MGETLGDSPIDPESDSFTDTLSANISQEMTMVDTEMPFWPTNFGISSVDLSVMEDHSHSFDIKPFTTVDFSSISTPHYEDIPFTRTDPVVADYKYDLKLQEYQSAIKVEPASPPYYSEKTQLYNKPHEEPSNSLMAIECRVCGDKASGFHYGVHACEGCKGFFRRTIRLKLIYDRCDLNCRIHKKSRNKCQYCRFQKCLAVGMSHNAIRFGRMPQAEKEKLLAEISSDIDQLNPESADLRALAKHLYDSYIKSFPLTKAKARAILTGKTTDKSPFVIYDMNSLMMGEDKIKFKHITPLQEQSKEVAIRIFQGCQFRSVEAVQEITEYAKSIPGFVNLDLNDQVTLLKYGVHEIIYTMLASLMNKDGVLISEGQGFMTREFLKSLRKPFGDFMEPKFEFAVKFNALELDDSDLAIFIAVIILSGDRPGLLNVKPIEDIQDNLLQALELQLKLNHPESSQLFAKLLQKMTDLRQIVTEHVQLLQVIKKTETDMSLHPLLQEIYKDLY

The inhibition is how much of the control response was suppressed. Consider `O=C1/C(=C/c2ccc(CO)o2)Oc2ccccc21`, for which the inhibition at 40 µM in the series on THP-1 [1] amounted to 50%. The inhibition at 50 µM in the series with THP-1 [2] stood at 30%.

One may read the IC50 as the concentration at which inhibition is half-maximal. Compound `COc1cc2c(cc1OC)C(=O)/C(=C/c1ccccc1OCCc1cccs1)C2` returned an IC50 in series [3] of 0.62 µM.

With `CCOC(OCC)c1ccc(/C=C2\Cc3ccccc3C2=O)cc1`, in the series on PMNL, the IC50 worked out at 7 µM.

As a reminder, the EC50 is the concentration giving half of the maximal effect. Turning to `COc1ccc(OC)c(/C=C2\Oc3cc(O)cc(O)c3C2=O)c1`, the figures for the half-maximal effective concentration (EC50) in the series on Leishmania major [4] and in the series with THP-1 [5] were 190 µM and 350 µM, respectively. The “fold change (FC)” value in the series with Leishmania major [6] is 6.

Turning to `COc1ccc2c(c1)O/C(=C\c1cn(-c3ccccc3)nc1-c1cccs1)C2=O`, the “inhibition zone (IZ)” value (in series [7]; in the series on Bacillus anthracis; in the series with Bacillus subtilis; in the series with Bacillus cereus; with Staphylococcus aureus; with Escherichia coli) was 13 mm in each case. The “inhibition zone (IZ)” value in the series on Pseudomonas fluorescens, in the series with Klebsiella pneumoniae, with Shigella dysenteriae, in the series on Candida albicans and with Pseudomonas aeruginosa was 13 mm in each case.

As for `O=C1/C(=C/c2cn(CC3CCCCC3)c3ccccc23)Oc2cc(O)cc(O)c21`, in the series on Toxoplasma gondii, the IC50 worked out at 10 µM.

The term Kd denotes a measure of binding affinity in units of concentration. For `O=C1/C(=C/c2ccc(-c3ccc(CO)cc3)s2)Cc2ccccc21`, in [8], binding was put at a Kd of 0.39 µM. The compound also returned an IC50 in the series on RAW264.7 of 4 µM.

Regarding `COc1cc(OC)c2c(c1)O/C(=C\c1ccccc1OC)C2=O`, the EC50 with Leishmania infantum was 1.3 µM. Further, the selectivity ratio in series [9] came out at 57.5.

One may read the CC50 as the concentration that lowers cell viability or growth by half. `COc1cc2c(cc1O)C(=O)/C(=C/c1ccc(C(C)=O)cc1)O2`: the IC50 in the series on NB-4 was 3.4 µM; in the series on SH-SY5Y it was 3.5 µM; in series [10], 2.4 µM. Moreover, the CC50 in series [11] is > 200 µM. Also, the selectivity ratio in series [12] came to 82.

Turning to `Cn1cc(/C=C2\Oc3ccccc3C2=O)c2ccccc21`, the EC50 with Schistosoma mansoni [13] was determined as 34 µM. Further, the CC50 in series [14] was > 150 µM.

Regarding `O=C1/C(=C/c2cccnc2Cl)Cc2ccccc21`, the IC50 in series [15] was 0.55 µM. In addition, the CC50 in [16] is > 100 µM.

On to `O=C1/C(=C/c2cccc(-c3ccc(C(F)(F)F)cc3)c2)Nc2ccccc21`, for which the EC50 is 0.11 µM in the series with Plasmodium falciparum, > 100 µM in the series with Plasmodium berghei and 0.81 µM in the series with HEK-293T.

Consider `O=C1/C(=C/c2cccs2)Oc2ccccc21`, for which, in the series with Schistosoma mansoni [17], the inhibition at 25 µM was determined as 50%. Moreover, the CC50 at 24 h in series [18] is > 150 µM.
